{"source": "paper PMC8010149", "about": "“A Therapeutic Strategy to Combat HIV-1 Latently Infected Cells With a Combination of Latency-Reversing Agents Containing DAG-Lactone PKC Activators” (Frontiers in Microbiology, 2021)", "key": {"BALB/c mice": {"system": "BALB/c mice", "assay": "In vivo acute toxicity (24 h) in BALB/c mice", "settings": "intraperitoneal, 100 μg/kg–10 mg/kg", "excerpt": "BALB/c mice were purchased from Charles River Laboratories Japan, Inc. (Yokohama, Japan). Female mice at 5 weeks of age were used for the experiments. The mice were housed and monitored in our animal research facility according to the institutional guidelines. All experimental procedures and protocols were approved by the Institutional Animal Care and Use Committee of Kumamoto University."}, "ACH-2 cells": {"system": "ACH-2 cells", "assay": "Active caspase-3 by flow cytometry in ACH-2 cells", "format": "cell-based", "settings": "10 µM, 24 h", "procedure": "(§1) The amount of intracellular HIV-1 p24 and the active form of caspase-3 were determined by flow cytometry, as previously described ([Matsuda et al., 2015], [2019]). In brief, ACH-2 and U1 cells (2.5 × 10^5 cells/ml) were fixed with 1% paraformaldehyde/PBS for 20 min and permeabilized with Flow Cytometry Perm Buffer (TONBO Biosciences, San Diego, CA, United States). After 5 min of incubation at room temperature, the cells were stained with FITC anti-HIV-1 p24 (24-4) monoclonal antibody (mAb; Santa Cruz Biotechnology, Dallas, TX, United States) or Alexa Fluor 647-conjugated anti-active caspase-3 (C92-605) mAb (BD Pharmingen, San Diego, CA, United States) for 30 min on ice. For T cell activation and exhaustion marker staining, PBMCs from healthy donors separated by the above density gradient centrifugation method were incubated with fixable viability stain Ghost Dye 780 (TONBO Biosciences) for 30 min on ice. […] Next, the cells were analyzed using BD FACSVerse (BD Biosciences). […] The collected data were analyzed using FlowJo software (Tree Star, San Carlos, CA, United States)."}, "U1 cells": {"system": "U1 cells", "assay": "Active caspase-3 by flow cytometry in U1 cells", "format": "cell-based", "settings": "10 µM, 24 h", "procedure": "as §1"}, "[1]": {"system": "HIV-1 latently infected U1 cells", "assay": "Intracellular HIV-1 p24 by flow cytometry in U1 cells", "format": "cell-based", "settings": "24 h", "procedure": "(§2) The reactivation of HIV-1 from latently infected cells was determined by intracellular p24 protein expression and quantification of p24 antigen in the supernatant (ACH-2 and U1 cells), or by changes in intracellular green fluorescent protein (GFP) expression (J-Lat 10.6 cells). J-Lat ([Jordan et al., 2003]), ACH-2, or U1 cells (5 × 10^5 cells/ml) were seeded in 96-well plates and incubated with different drug concentrations for 24 h to collect the cells. The supernatant was collected after 48 h. The increase in supernatant p24 antigen levels was measured using a Lumipulse G1200 (FUJIREBIO, Tokyo, Japan). J-Lat cells (5 × 10^5 cells/ml) were placed in 48-well plates and incubated with different drug concentrations for 24 h. Intracellular p24 protein expression and GFP-positive cells were analyzed by flow cytometry.\n(§3) The amount of intracellular HIV-1 p24 and the active form of caspase-3 were determined by flow cytometry, as previously described ([Matsuda et al., 2015], [2019]). In brief, ACH-2 and U1 cells (2.5 × 10^5 cells/ml) were fixed with 1% paraformaldehyde/PBS for 20 min and permeabilized with Flow Cytometry Perm Buffer (TONBO Biosciences, San Diego, CA, United States). After 5 min of incubation at room temperature, the cells were stained with FITC anti-HIV-1 p24 (24-4) monoclonal antibody (mAb; Santa Cruz Biotechnology, Dallas, TX, United States) or Alexa Fluor 647-conjugated anti-active caspase-3 (C92-605) mAb (BD Pharmingen, San Diego, CA, United States) for 30 min on ice. For T cell activation and exhaustion marker staining, PBMCs from healthy donors separated by the above density gradient centrifugation method were incubated with fixable viability stain Ghost Dye 780 (TONBO Biosciences) for 30 min on ice. The cells were then stained with Brilliant Violet 510 anti-human CD3 (UCHT1) mAb (BioLegend), FITC anti-human CD4 (RPA-T4) mAb (TONBO Biosciences), PE-Cy7 anti-human CD8a (RPA-T8) mAb (TONBO Biosciences), PerCP-Cy5.5 anti-human CD38 (HB-7) mAb (BioLegend), PE anti-human CD69 (FN50) mAb (BioLegend), or Alexa Fluor 647 anti-human CD279/PD-1 (EH12.1) mAb (BD Biosciences, San Jose, CA, United States) for 30 min on ice. Next, the cells were analyzed using BD FACSVerse (BD Biosciences). In the analysis, unstained cells were used as a negative control to set the gating for each experiment. The collected data were analyzed using FlowJo software (Tree Star, San Carlos, CA, United States)."}, "[2]": {"system": "CD4+ or CD8+ primary T cells", "assay": "T cell activation, CD69 expression on CD4+ or CD8+ primary T cells", "format": "cell-based, human", "settings": "1 μM, 24 h, compared to prostratin and PEP005", "procedure": "as §1"}, "[3]": {"system": "CD8+PD1+CD38+ primary T cells", "assay": "Immune exhaustion markers, CD8+PD1+CD38+ primary T cells", "format": "cell-based, human", "settings": "PBMCs from healthy donors, 24 h", "procedure": "as §3"}, "[4]": {"system": "HIV-1 latently infected U1 cells", "assay": "HIV-1 latency reversal, p24 antigen in supernatant, U1 cells", "format": "cell-based", "settings": "Human immunodeficiency virus 1, 48 h", "procedure": "as §2"}, "[5]": {"system": "PBMCs from healthy donors", "assay": "Acute cytotoxicity in primary cells (fixable viability dye, flow cytometry)", "format": "cell-based", "experimental": "For T cell activation and exhaustion marker staining, PBMCs from healthy donors separated by the above density gradient centrifugation method were incubated with fixable viability stain Ghost Dye 780 (TONBO Biosciences) for 30 min on ice. […] Next, the cells were analyzed using BD FACSVerse (BD Biosciences). In the analysis, unstained cells were used as a negative control to set the gating for each experiment. The collected data were analyzed using FlowJo software (Tree Star, San Carlos, CA, United States).\nThe ratio of living cells was calculated for fixable viability dye negative cell populations by flow cytometry. Data are shown as means ± SDs of three independent experiments."}, "[6]": {"system": "HIV-1 latently infected ACH-2 cells", "assay": "HIV-1 latency reversal, p24 antigen in supernatant, ACH-2 cells", "format": "cell-based", "settings": "Human immunodeficiency virus 1, ACH-2, 48 h", "procedure": "as §2"}, "[7]": {"assay": "Cytotoxicity of LRAs in U937 cells", "format": "cell-based", "settings": "human, day 7", "procedure": "To determine the cytotoxicity of LRAs, A3.01, and U937 cells (5 × 10^5 cells/ml), which are the parental cells for ACH-2 and U1 cells, respectively, were cultured in the presence or absence of LRAs. After 7 days, cell viability was examined using the Cell Counting Kit-8 assay (Dojindo, Kumamoto, Japan) according to the manufacturer’s instructions. The numbers of living cells after drug treatment were measured and compared to those in untreated cells and are presented as a percentage relative to the control."}}, "note": "pEC50: −log10 of the molar value.", "data": [{"compound": "CCCC(CCC)C(=O)OCC1(CO)CC(=C(C)C)C(=O)O1", "note": "(stereo not shown) [YSE028]", "values": [{"measurement": "survival", "setting": "BALB/c mice", "value": "all of them survived"}, {"measurement": "caspase-3 activation", "setting": "ACH-2 cells", "value": 17.85, "unit": "%"}, {"measurement": "caspase-3 activation", "setting": "U1 cells", "value": 22.7, "unit": "%"}, {"measurement": "intracellular p24-positive live cells (flow cytometry quadrant)", "setting": "[1]; 0.1 µM", "value": 0.239}, {"measurement": "intracellular p24-positive live cells (flow cytometry quadrant)", "setting": "[1]; 1 µM", "value": 1.13}, {"measurement": "intracellular p24-positive live cells (flow cytometry quadrant)", "setting": "[1]; 10 µM", "value": 36.3}, {"measurement": "CD69+ cells in primary T cells (global T cell activation)", "setting": "[2]", "value": "less effect"}, {"measurement": "increase in CD8+ PD1+ CD38+ T cells", "setting": "[3]", "value": "only moderate"}, {"measurement": "pEC50", "setting": "[4]", "value": 5.74}, {"measurement": "toxicity of LRAs in combination in primary cells", "setting": "[5]; YSE028 10 μM with JQ1 1 μM, Supplementary Figure S3A", "value": "did not cause increased toxicity in combination"}, {"measurement": "acute toxicity in primary cells", "setting": "[5]; up to 100 μM, 24 h", "value": "did not show acute toxicity"}, {"measurement": "pEC50", "setting": "[6]", "value": 6.06}, {"measurement": "CC50 at 7 days", "setting": "[7]", "value": "> 100", "unit": "µM"}]}]}
